This assay deals with T1, TANK-2 enzyme (Homo sapiens, UniProt Q9H2K2).
T1 construct: made in house
T1 sequence (Q9H2K2 1-1166): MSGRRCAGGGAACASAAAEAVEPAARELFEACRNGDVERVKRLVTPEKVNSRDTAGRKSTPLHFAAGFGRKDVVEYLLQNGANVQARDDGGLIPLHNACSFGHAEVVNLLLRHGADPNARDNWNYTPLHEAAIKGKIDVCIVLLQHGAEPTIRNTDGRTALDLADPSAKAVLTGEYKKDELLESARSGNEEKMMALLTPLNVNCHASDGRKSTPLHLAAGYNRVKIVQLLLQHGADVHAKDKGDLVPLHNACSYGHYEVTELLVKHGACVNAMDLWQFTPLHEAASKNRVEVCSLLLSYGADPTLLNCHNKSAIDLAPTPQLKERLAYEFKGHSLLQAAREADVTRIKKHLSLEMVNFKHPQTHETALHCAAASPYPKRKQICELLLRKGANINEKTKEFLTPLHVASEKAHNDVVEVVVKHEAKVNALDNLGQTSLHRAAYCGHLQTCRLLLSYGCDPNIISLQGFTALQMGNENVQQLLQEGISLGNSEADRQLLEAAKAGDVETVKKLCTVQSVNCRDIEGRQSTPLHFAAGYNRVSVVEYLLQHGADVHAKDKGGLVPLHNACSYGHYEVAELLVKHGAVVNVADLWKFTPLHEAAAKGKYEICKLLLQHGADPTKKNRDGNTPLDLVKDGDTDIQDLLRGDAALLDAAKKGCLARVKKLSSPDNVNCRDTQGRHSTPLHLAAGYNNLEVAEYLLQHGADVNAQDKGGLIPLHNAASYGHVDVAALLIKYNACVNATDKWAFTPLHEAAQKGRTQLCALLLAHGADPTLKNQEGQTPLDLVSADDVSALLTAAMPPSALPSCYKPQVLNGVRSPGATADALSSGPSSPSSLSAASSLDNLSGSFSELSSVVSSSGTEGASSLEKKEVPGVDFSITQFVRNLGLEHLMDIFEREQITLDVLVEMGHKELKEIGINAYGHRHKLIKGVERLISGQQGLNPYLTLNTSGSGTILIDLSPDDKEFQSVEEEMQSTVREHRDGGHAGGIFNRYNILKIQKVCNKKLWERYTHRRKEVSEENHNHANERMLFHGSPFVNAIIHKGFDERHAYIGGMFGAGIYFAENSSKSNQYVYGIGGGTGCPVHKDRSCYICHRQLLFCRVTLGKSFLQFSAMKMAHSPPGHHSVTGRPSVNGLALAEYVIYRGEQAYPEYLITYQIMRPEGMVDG
In words: In vitro Scintillation Proximity Assay (SPA) for TANK-2 inhibitory activity. Format: biochemical. The conditions noted are these: for IC50: read-out: in vitro SPA assay TANK-2 pIC50 (converted). In outline: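 Results are pIC50 values, with IC50 interpolated linearly around 50% of blank-subtracted control cpm. They come from a scintillation proximity read of TANK-2 (8 μg/ml) self-modification with [3H]-NAD+/NAD, incubated 120 min at room temperature in pH 7.4 Tris buffer containing MgCl2 and DTT. Compounds were first screened at 10^−5 M.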
(Scintillation proximity formats need no separation of bound from free tracer.)

For the compound `CCc1cc2ccc([C@](C)(C#N)Cc3ccccc3)cc2[nH]c1=O` (single isomer, unassigned) [Compound 45], the IC50 was 0.0251 µM.

Consider `CCc1cc2ccc([C@@](C)(C#N)Cc3ccccc3)cc2[nH]c1=O` (single isomer, unassigned) [Compound 46], for which the IC50 is 0.0251 µM.

On to `CCc1cc2ccc(C(C)(C#N)CC3COc4ccccc4O3)cc2[nH]c1=O` (single isomer, unassigned) [Compound 47], for which the IC50 is 0.316 µM.

Regarding `CCc1cc2ccc([C@](C)(C#N)Cc3nc(OC)cc(OC)n3)cc2[nH]c1=O` (single isomer, unassigned) [Compound 52], the IC50 was 0.2 µM.

Take `CCc1cc2ccc([C@@](C)(C#N)Cc3nc(OC)cc(OC)n3)cc2[nH]c1=O` (single isomer, unassigned) [Compound 53]: the IC50 is 0.158 µM.

On to `CCc1cc2ccc(C(C)(C#N)Cc3cccc(C#C[Si](C)(C)C)c3)cc2[nH]c1=O` (stereo not drawn) [Compound 1], for which the IC50 was 3.98 µM.

Regarding `CCc1cc2ccc(C(C)(C#N)Cc3cccc(CN(C)C)c3)cc2[nH]c1=O` (stereo not drawn) [Compound 7], the IC50 was 0.158 µM.

On to `CCc1cc2ccc(C(C)(C#N)Cc3cccc(COC)c3)cc2[nH]c1=O` (stereo not drawn) [Compound 8], for which the IC50 was 0.0794 µM.

Consider `CCc1cc2ccc(C(C)(C#N)Cc3cccc(CO)c3)cc2[nH]c1=O` (stereo not drawn) [Compound 9], for which the IC50 is 0.0631 µM.

With `CCc1cc2ccc(C(C#N)(Cc3ccccc3)CC3CC3)cc2[nH]c1=O` (stereo not drawn) [Compound 28], the IC50 is 0.316 µM.

As for `CC(C#N)(Cc1ccccc1)c1ccc2cc(CO)c(=O)[nH]c2c1` (stereo not drawn) [Compound 40], the IC50 was 0.158 µM.

With `CCc1cc2ccc(C(C)(C#N)Cc3c(F)ccc(C)c3F)cc2[nH]c1=O` (stereo not drawn) [Compound 41], the IC50 was 0.0794 µM.

As to `CCc1cc2ccc(C(C)(C#N)Cc3nnsc3Cl)cc2[nH]c1=O` (stereo not drawn) [Compound 42], the IC50 was 0.0794 µM.

Turning to `CCc1cc2ccc(C(C)(C#N)Cc3nc(OC)cc(OC)n3)cc2[nH]c1=O` (stereo not drawn) [Compound 43], the IC50 was 0.158 µM.

For the compound `CCc1cc2ccc(C(C)(C#N)Cc3ccccc3)cc2[nH]c1=O` (stereo not drawn) [Compound 44], the IC50 is 0.0398 µM.

On to `CCc1cc2ccc(C(C)(C#N)Cc3cccc(Br)c3)cc2[nH]c1=O` (stereo not drawn) [Compound 49], for which the IC50 was 0.0316 µM.

For the compound `CCOP(=O)(OCC)c1cccc(CC(C)(C#N)c2ccc3cc(CC)c(=O)[nH]c3c2)c1` (stereo not drawn) [Compound 50], the IC50 was 0.2 µM.

Consider `CCc1cc2ccc(C(C)(C#N)Cc3cccc(C#N)c3)cc2[nH]c1=O` (stereo not drawn) [Compound 51], for which the IC50 is 0.0398 µM.

Regarding `CCc1cc2ccc(C(C)(C#N)CCOc3ccc([N+](=O)[O-])cc3)cc2[nH]c1=O` (stereo not drawn) [Compound 54], the IC50 was 0.158 µM.

For `CCc1cc2ccc(C(C)(C#N)Cc3cccc(CN4CCN(C)CC4)c3)cc2[nH]c1=O` (stereo not drawn) [Compound 57], the IC50 was 0.126 µM.

Consider `CCc1cc2ccc(C(C)(C#N)Cc3cccc(CN4CCOCC4)c3)cc2[nH]c1=O` (stereo not drawn) [Compound 58], for which the IC50 was 0.316 µM.

With `CCc1cc2ccc(C(C)(C#N)Cc3cccc(CNC)c3)cc2[nH]c1=O` (stereo not drawn) [Compound 59], the IC50 was 0.0794 µM.

In the case of `CCc1cc2ccc(C(C)(C#N)Cc3cccc(CNCCOC)c3)cc2[nH]c1=O` (stereo not drawn) [Compound 60], the IC50 is 0.0631 µM.

For the compound `CCc1cc2ccc(C(C)(C#N)Cc3cccc(CNCCN4CCOCC4)c3)cc2[nH]c1=O` (stereo not drawn) [Compound 61], the IC50 is 0.1 µM.

For the compound `CCc1cc2ccc(C(C)(C#N)Cc3cccc(C(=O)NCCOC)c3)cc2[nH]c1=O` (stereo not drawn) [Compound 62], the IC50 was 0.0794 µM.

Regarding `CCc1cc2ccc(C(C)(C#N)Cc3cccc(C(=O)N(C)C)c3)cc2[nH]c1=O` (stereo not drawn) [Compound 63], the IC50 is 0.2 µM.

On to `CCc1cc2ccc(C(C)(C#N)Cc3cccc(N4CCNCC4)c3)cc2[nH]c1=O` (stereo not drawn) [Compound 64], for which the IC50 is 0.0251 µM.

For `CCc1cc2ccc(C(C)(C#N)Cc3cccc(N4CCCCC4)c3)cc2[nH]c1=O` (stereo not drawn) [Compound 65], the IC50 was 0.0398 µM.

With `CCc1cc2ccc(C(C)(C#N)Cc3cccc(N4CCN(C)CC4)c3)cc2[nH]c1=O` (stereo not drawn) [Compound 66], the IC50 is 0.0316 µM.

On to `CCc1cc2ccc(C(C)(C#N)Cc3cccc(OCC4CC4)c3)cc2[nH]c1=O` (stereo not drawn) [Compound 67], for which the IC50 was 0.126 µM.

For the compound `CCc1cc2ccc(C(C)(C#N)Cc3cccc(OCCCN4CCOCC4)c3)cc2[nH]c1=O` (stereo not drawn) [Compound 68], the IC50 was 0.0631 µM.

Regarding `CCc1cc2ccc(C(C)(C#N)Cc3cccc(OCCCN4CCN(C)CC4)c3)cc2[nH]c1=O` (stereo not drawn) [Compound 69], the IC50 is 0.0631 µM.

On to `Cc1cc2ccc(C(C)(C#N)Cc3noc(-c4cccc(C(F)(F)F)c4)n3)cc2[nH]c1=O` (stereo not drawn) [Compound 70], for which the IC50 was 0.2 µM.

Regarding `Cc1cc2ccc(C(C)(C#N)Cc3cc4ccccc4s3)cc2[nH]c1=O` (stereo not drawn) [Compound 71], the IC50 was 0.251 µM.

With `Cc1cc2ccc(C(C)(C#N)Cc3ccc(Cl)s3)cc2[nH]c1=O` (stereo not drawn) [Compound 72], the IC50 is 0.251 µM.

Regarding `Cc1cc2ccc(C(C)(C#N)Cc3ccc(C(F)(F)F)o3)cc2[nH]c1=O` (stereo not drawn) [Compound 73], the IC50 was 0.251 µM.

On to `Cc1cc2ccc(C(C)(C#N)Cc3cccc4cccnc34)cc2[nH]c1=O` (stereo not drawn) [Compound 74], for which the IC50 is 0.126 µM.

Turning to `Cc1cc2ccc(C(C)(C#N)Cc3nc4ccccc4s3)cc2[nH]c1=O` (stereo not drawn) [Compound 75], the IC50 is 0.251 µM.

Turning to `Cc1cc2ccc(C(C)(C#N)Cc3ccccc3)cc2[nH]c1=O` (stereo not drawn) [Compound 76], the IC50 is 0.0316 µM.

Regarding `CCc1cc2ccc(C(C)(C#N)Cc3ccc(OC)c(C#N)c3)cc2[nH]c1=O` (stereo not drawn) [Compound 77], the IC50 is 0.1 µM.

Consider `CCc1cc2ccc(C(C)(C#N)Cc3cc(C)ccc3C)cc2[nH]c1=O` (stereo not drawn) [Compound 78], for which the IC50 is 0.158 µM.

For the compound `CCc1cc2ccc(C(C)(C#N)Cc3ccc(F)c(C)c3)cc2[nH]c1=O` (stereo not drawn) [Compound 79], the IC50 is 0.0794 µM.

On to `CCc1cc2ccc(C(C)(C#N)Cc3cc(Cl)ccc3OC)cc2[nH]c1=O` (stereo not drawn) [Compound 80], for which the IC50 is 0.126 µM.

Regarding `CCc1cc2ccc(C(C)(C#N)Cc3cccc(Br)c3C)cc2[nH]c1=O` (stereo not drawn) [Compound 81], the IC50 is 0.1 µM.

`CCc1cc2ccc(C(C)(C#N)Cc3ccc(Cl)c(C(F)(F)F)c3)cc2[nH]c1=O` (stereo not drawn) [Compound 82]: the IC50 is 0.398 µM.

As for `CCc1cc2ccc(C(C)(C#N)Cc3ccc(C)c(F)c3F)cc2[nH]c1=O` (stereo not drawn) [Compound 83], the IC50 is 0.0794 µM.

As for `CCc1cc2ccc(C(C)(C#N)Cc3c(C)cccc3C)cc2[nH]c1=O` (stereo not drawn) [Compound 84], the IC50 is 0.126 µM.

Turning to `CCc1cc2ccc(C(C)(C#N)Cc3nc4ccccc4o3)cc2[nH]c1=O` (stereo not drawn) [Compound 85], the IC50 was 0.1 µM.

As to `CCc1cc2ccc(C(C)(C#N)Cc3csc(C)n3)cc2[nH]c1=O` (stereo not drawn) [Compound 86], the IC50 is 0.158 µM.

Regarding `CCc1cc2ccc(C(C)(C#N)Cc3ccc4nccnc4c3)cc2[nH]c1=O` (stereo not drawn) [Compound 87], the IC50 was 0.0501 µM.

Turning to `CCc1cc2ccc(C(C)(C#N)Cc3c(C)c(C)cc(C)c3C)cc2[nH]c1=O` (stereo not drawn) [Compound 88], the IC50 was 0.2 µM.

Take `CCc1cc2ccc(C(C)(C#N)Cc3c(C)c(C)c(C)c(C)c3C)cc2[nH]c1=O` (stereo not drawn) [Compound 89]: the IC50 is 0.316 µM.

As to `CCc1cc2ccc(C(C)(C#N)Cc3cc(Cl)cc4c3OCOC4)cc2[nH]c1=O` (stereo not drawn) [Compound 90], the IC50 is 0.0794 µM.

Take `CCc1cc2ccc(C(C)(C#N)Cc3cc4c(cc3Cl)OCO4)cc2[nH]c1=O` (stereo not drawn) [Compound 91]: the IC50 is 0.0631 µM.

As to `CCc1cc2ccc(C(C)(C#N)Cc3cc(Cl)cc4c3OCOC4)cc2[nH]c1=O` (stereo not drawn) [Compound 92], the “in vitro SPA assay TANK-2 pIC50” value is recorded as 7.1.

As to `CCc1cc2ccc(C(C)(C#N)Cc3nncn3C)cc2[nH]c1=O` (stereo not drawn) [Compound 93], the IC50 was 0.398 µM.

As to `CCc1cc2ccc(C(C)(C#N)Cc3cccc4nnn(C)c34)cc2[nH]c1=O` (stereo not drawn) [Compound 94], the IC50 is 0.251 µM.

For `CCc1cc2ccc(C(C)(C#N)Cc3nn(C)c4ccccc34)cc2[nH]c1=O` (stereo not drawn) [Compound 95], the IC50 is 0.0794 µM.

Regarding `CCc1cc2ccc(C(C)(C#N)Cc3cn4ccccc4n3)cc2[nH]c1=O` (stereo not drawn) [Compound 96], the IC50 is 0.1 µM.

In the case of `CCc1cc2ccc(C(C)(C#N)Cc3cccnc3)cc2[nH]c1=O` (stereo not drawn) [Compound 97], the IC50 was 0.0631 µM.

Values taken from patent publication US8778966B2, “Quinolinone derivatives as PARP and tank inhibitors” (Janssen Pharmaceutica, NV, priority 2007, dated 2014).
